For data set [1], the target named is T1, wild-type His6-tagged H-Ras (1-166) pre-loaded with GDP (Homo sapiens, UniProt P01112).
T1 construct: wild-type and mutant His6-tagged H-Ras (1-166) pre-loaded with GDP; made in house; host or cells: Escherichia coli (BL21)
Briefly: Fluorescence polarization binding assay, wild-type H-Ras-GDP. To be noted: fluorescein-derivatized CHD, GDP-bound wild-type H-Ras, fluorescence polarization; read-out: binding affinity, Kd. The source says: GTP of the Ras-specific nucleotide exchange factor SOS. Cell 112, 685-695 (2003).

In data set [2] the test system is ERK phosphorylation in HeLa cells. The data set is described as follows: ERK activation assay, HeLa. Type of data set: cell-based. The conditions noted are these: HeLa cells (wild-type Ras), 1, 5, 10 μM, 6 hours. As to the method:
(§1) H358 or HeLa cells were initially seeded in 6-well plates (1x10^6 cells/well) and allowed to attach overnight. The cells were then incubated with indicated peptides dissolved in complete medium at specified concentrations for 6 hours at 37° C. The cells were washed twice with ice-cold PBS and then lysed in cold RIPA buffer (200 μL/well) containing 25 mM Tris-HCl, pH 7.6, 150 mM NaCl, 1% NP-40, 1% sodium doexycholic acid, 0.1% SDS, Roche Complete Protease inhibitor cocktail (1X, Sigma-Aldrich, P2714), and Roche PhosSTOP phosphatase inhibitor cocktail tablets (1X, Sigma-Aldrich, 4906845001). The cells are kept on ice for 5 minutes with occasional swirling for uniform spreading. Cell lysates are generated with a cell scraper, transferred to a microcentrifuge tube, and centrifuged at 13,000 rpm for 10 minutes at 4° C. The clarified supernatant was collected, and the total protein concentration was measured by Pierce BCA protein assay. The lysates were subjected to SDS-PAGE (10 μg/lane loading) and Western Blot analysis via immunoblotting. Primary antibodies include Phospho-p44/42 MAPK (Erk1/2) (Thr202/Tyr204) (Cell Signaling 4370), p44/42 MAPK (Erk1/2) (Cell Signaling 4695), Ras (Abcam ab 108602), and a-tubulin (Cell Signaling 2144). Secondary antibodies include anti-rabbit IgG, HRP-linked antibody (Cell Signaling 7074P2, 1:2000). […]

The subject of data set [3] is ERK phosphorylation in H358 cells. The data set is described as follows: ERK activation assay, H358. Format: cell-based. The conditions noted are these: H358 cells, 1, 5, 10 μM, 6 hours. As to the method:
as §1

The test system of the next data set is T24 cells. Briefly: Flow cytometry cellular uptake, T24. Format: cell-based. To be noted: fluorescently labeled peptide 1 μM, 1 h. As to the method: (§2) All compounds are dissolved as concentrated stocks in DMSO.
For orientation: Flow cytometry measures light scatter and fluorescence of single cells or particles in a stream.

For a further data set, the system named is H358 cells. The data set is described as follows: Flow cytometry cellular uptake, H358. Format: cell-based. The conditions noted are these: fluorescently labeled peptide 1 μM, 1 h. Here is the method:
as §2

The subject of data set [4] is Ras wild type and mutant cell lines. Briefly: MTT cell viability assay. Type of data set: cell-based. The conditions noted are these: 72 hours, in presence of serum; oncogenic Ras mutant cell lines in comparison to wild-type Ras HeLa control. As to the method: Cell viability was monitored using the MTT (Sigma-Aldrich, M2128) or CellTiter-Glo Luminescent cell viability assay (Promega).
Cell viability was monitored using the MTT (Sigma-Aldrich, M2128) […] cell viability assay. Cells were plated in clear 96-well plates at 2000 cells/well and allowed to affix overnight at 37° C. Each well is gently aspirated and washed with serum-free medium before introducing peptide inhibitors dissolved in complete medium with 0.5% DMSO (v/v final) to desired concentrations (90 μL/well). The cells are incubated in the presence of peptide for 72 hours at 37° C. MTT reagent solution is composed of Thiazolyl Blue Tetrazolium Bromide dissolved in Dulbecco's Phosphate Buffered Saline (DPBS), pH 7.4 to a concentration of 5 mg/mL and subsequently sterile-filtered into a light-protected container. MTT reagent was added to each well (0.45 mg/mL/well final). The cells are incubated at 37° C. for an additional 4 hours. Upon careful removal of the supernatant, 150 μL DMSO (solubilization solution) is added to each well and mixed to ensure complete solubilization and release of the insoluble purple formazan precipitate into solution. Absorbance values are recorded with a Synergy HT Multi-Detection Microplate Reader (BioTek) at 570 nm.

Another data set deals with T2, wild-type H-Ras-GDP (Homo sapiens, UniProt P01112).
T2 construct: Wild-type and mutant N-terminal His6-H-Ras (residues 1-166) in pProEx HTb expression vector; His6 (N); made in house; host or cells: Escherichia coli (BL21)
The data set is described as follows: Microscale thermophoresis (MST), wild-type H-Ras-GDP. Type of data set: binding. As to the method:
Fluorescent labeling of the H-Ras protein was performed using the Monolith Protein Labeling Kit RED-MALEIMIDE 2nd Generation from NanoTemper (MO-L014) or AFDye 647 maleimide fluoroprobes (1122-1). Briefly, 20 nM of H-Ras protein was labeled with 1.5 equivalents of cysteine reactive dye in the 1× PBS under dark for 90 minutes. Labeled Ras proteins were then purified via the kit provided column, and the Degree of Label (DOL) was calculated by using the dye's absorbance and protein's original absorbance. The observed DOL value after the labeling for wild-type H-Ras-GDP was 0.43 and G12V H-Ras-GDP was 0.98.
MST binding assays were conducted with NanoTemper Monolith NT.115 Pico. Assay conditions were optimized with a premium coated capillary tube from NanoTemper to avoid random adsorption. Measurement was performed at 25° C. using 10-15% laser excitation power for 20 seconds. The assay buffer was composed of 50 mM Tris, 100 mM NaCl, and 0.1% pluronic acid. 5-10 nM of the dye labeled protein was exposed to serial dilutions of indicated CHDs and incubated for 90 mins in room temperature before the measurements. Error bars are generated from triplicates. Binding affinities were obtained from the MO analysis software in NT.115 Pico with the following equation:
[formula] [formula] • where, Unbd=Response value of unbound state Bd=Response value of bound state TC=Final concentration of fluorescent molecule
On the technique in general: Microscale thermophoresis detects binding through changes in fluorescence in a small temperature gradient.

The structures appear in SMILES notation. Residues, ends and D or L forms follow the SMILES beside them. Some results are limits rather than exact numbers.

Broadly, the Kd is the free concentration of one partner at which half of the binding sites on the other are occupied at equilibrium, for simple one-to-one binding.

T2 sequence (P01112 1-166): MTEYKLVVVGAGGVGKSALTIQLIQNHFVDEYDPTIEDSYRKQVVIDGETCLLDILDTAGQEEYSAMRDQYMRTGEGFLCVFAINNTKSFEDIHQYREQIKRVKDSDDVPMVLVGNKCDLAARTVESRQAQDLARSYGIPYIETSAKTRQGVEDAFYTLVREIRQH
T1 sequence (P01112 1-166): as above

In the case of `CC[C@H](C)[C@H](NC(=O)[C@H](C)NC(C)=O)C(=O)NCC(=O)N[C@@H](CCCNC(=N)N)C(=O)N[C@@H](CC(C)C)C(=O)N[C@@H](CSCc1ccc(COCc2ccc(CSC[C@H](NC(=O)[C@H](CC(C)C)NC(=O)[C@H](CCCNC(=N)N)NC(=O)[C@H](C)NC(=O)[C@H](CC(C)C)NC(=O)[C@H](CCC(=O)O)NC(=O)[C@H](CCCNC(=N)N)NC(=O)[C@H](CCC(=O)O)NC(=O)[C@H](CC(C)C)NC(=O)[C@H](CCC(=O)O)NC(=O)[C@H](CCCNC(=N)N)NC(=O)[C@H](CC(C)C)NC(=O)[C@H](CCCNC(=N)N)NC(=O)[C@H](Cc3c[nH]c4ccccc34)NC(=O)[C@H](C)NC(=O)[C@H](CC(C)C)NC(C)=O)C(N)=O)cc2)cc1)C(=O)N[C@H](C(=O)N[C@@H](CCC(=O)O)C(=O)N[C@H](C(=O)N[C@@H](CC(C)C)C(=O)N[C@@H](CCCNC(=N)N)C(=O)N[C@@H](CC(C)C)C(=O)N[C@@H](CCCNC(=N)N)C(=O)N[C@@H](CC(N)=O)C(=O)NCC(=O)N[C@@H](C)C(N)=O)[C@@H](C)CC)[C@@H](C)O` [CHC^Sos-3] (HELM PEPTIDE1{[ac].A.I.G.R.L.C.T.E.I.L.R.L.R.N.G.A.[am]}|PEPTIDE2{[ac].L.A.W.R.L.R.E.L.E.R.E.L.A.R.L.C.[am]}|CHEM1{[c1cc(C[*:1])ccc1COCc1ccc(C[*:2])cc1]}$PEPTIDE1,CHEM1,7:R3-1:R1|PEPTIDE2,CHEM1,17:R3-1:R2$$$V2.0), the Kd in data set [1] is > 100 µM; at wild-type H-Ras-GDP (MST, fluorescently-labeled Ras, read-out: binding affinity, Kd), > 100 µM. The “effect on ERK phosphorylation” value in data set [2] and in data set [3] was “did not suppress ERK phosphorylation” throughout. For the same molecule, the “cellular uptake, median fluorescence intensity” value with T24 cells and in the data set on H358 cells was “lower uptake than CHC^Sos-5” in each case. Further, the “cell viability (MTT)” value in data set [4] was “little to no effect”. At wild-type H-Ras-GDP (MST with wild-type H-Ras-GDP, interrupted binding isotherm), the “concentration above which aggregation was observed” value was “higher than 3 μM”.

The values are drawn from patent US20240124539A1, “CROSSLINKED HELIX DIMER MIMICS OF SOS AND METHODS OF USING SAME” (NEW YORK UNIVERSITY, priority 2020, published 2024).
